From publication PMC10950880, “The RsfSR two-component system regulates SigF function by monitoring the state of the respiratory electron transport chain in Mycobacterium smegmatis” (The Journal of Biological Chemistry, 2024)

Columns and labels:
[1] = molecular target: T1, RsfSTr (truncated RsfS, MSMEG_6130) (Mycolicibacterium smegmatis, UniProt A0R5B3); test: autophosphorylation and phosphotransfer to RsfR, Phos-tag SDS-PAGE; format: biochemical; conditions: 1 mM ATP, 300 mM Tris-HCl pH 8, 50 mM KCl, 10 mM MgCl2, 30 C; covalent
T1 construct: kinase domain only (amino acids 190-525), lacks CHASE3 and N-terminal region; C-terminal His6 kept; from E. coli BL21; partially purified
T1 sequence (A0R5B3 entry or part of it): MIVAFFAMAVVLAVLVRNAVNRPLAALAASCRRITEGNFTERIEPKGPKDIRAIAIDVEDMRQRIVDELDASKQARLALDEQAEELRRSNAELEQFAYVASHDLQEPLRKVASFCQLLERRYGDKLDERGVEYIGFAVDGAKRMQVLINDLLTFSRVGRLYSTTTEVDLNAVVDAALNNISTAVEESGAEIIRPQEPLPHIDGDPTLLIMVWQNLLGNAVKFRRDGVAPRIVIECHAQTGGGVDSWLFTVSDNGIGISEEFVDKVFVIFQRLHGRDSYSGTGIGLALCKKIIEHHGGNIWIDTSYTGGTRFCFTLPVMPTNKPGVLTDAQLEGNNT

[2] = molecular target: T2, RsfR (MSMEG_6131) (Mycolicibacterium smegmatis, UniProt A0R5B4); test: phosphorylation of RsfR by acetyl phosphate (Phos-tag SDS-PAGE); RsfR then tested on P-RsfB; format: biochemical; conditions: 40 mM acetyl phosphate, 300 mM Tris-HCl pH 8.0, 50 mM KCl, 10 mM MgCl2, no ATP, 30 C; phosphodonor, covalent
T2 construct: C-terminal His6 kept; from E. coli BL21 (DE3), pT7-7rsfR
T2 sequence (A0R5B4 1-402): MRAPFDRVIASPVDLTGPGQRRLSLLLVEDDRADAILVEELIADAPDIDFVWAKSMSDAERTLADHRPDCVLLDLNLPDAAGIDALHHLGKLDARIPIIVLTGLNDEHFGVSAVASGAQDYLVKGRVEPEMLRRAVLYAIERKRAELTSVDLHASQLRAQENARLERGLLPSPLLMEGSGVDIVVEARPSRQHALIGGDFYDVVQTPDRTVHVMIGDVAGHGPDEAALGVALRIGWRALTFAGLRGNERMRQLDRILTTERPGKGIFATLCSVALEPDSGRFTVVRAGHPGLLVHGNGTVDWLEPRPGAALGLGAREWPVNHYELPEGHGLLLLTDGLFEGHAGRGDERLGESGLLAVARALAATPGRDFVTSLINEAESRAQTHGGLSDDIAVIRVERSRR

Nc1ncnc2c1ncn2[C@@H]1O[C@H](COP(=O)(O)OP(=O)(O)OP(=O)(O)O)[C@@H](O)[C@H]1O [ATP]
autophosphorylation and phosphotransfer to RsfR, Phos-tag SDS-PAGE [1]: RsfSTr was autophosphorylated in the reaction mixture

CC(=O)OP(=O)(O)O [acetyl phosphate]
RsfR phosphorylation by acetyl phosphate [2]: Acetyl phosphate phosphorylated purified RsfR less efficiently than RsfSTr
